This passage reports IC50 results from patent publication US5760054A, “Alpha IC adrenergic receptor antagonists” (priority 1996, dated 1998).

Assay [1] concerns the target human alpha1A adrenergic receptor. As to the kind of experiment: Selective binding assay, competition with [125I]-HEAT on COS-7 membranes, α1A. The settings on record: Table I, 100 pM [125I]-HEAT. How it is done: The resulting plasmid was transfected into COS-7 cells by electroporation.
Binding reactions (total volume=200 ul) contained 50 mM Tris-HCl pH. […] Reactions are incubated at room temperature for one hour with shaking. Reactions were filtered onto Whatman GF/C glass fiber filters with a Brandel cell harvester. Filters were washed three times with ice cold buffer and bound radioactivity was determined.
(§1) These competition binding reactions (total volume=200 ul) contain 50 mM Tris-HCl pH. […] Reactions are incubated at room temperature for one hour with shaking. Reactions were filtered onto Whatman GF/C glass fiber filters with a Brandel cell harvester. Filters were washed three times with ice cold buffer and bound radioactivity was determined. Binding data were analyzed and IC50s determined by an iterative curve fitting program.

Assay [2] deals with human/rat alpha1B adrenergic receptor. As to the kind of experiment: Selective binding assay, competition with [125I]-HEAT on COS-7 membranes, α1B. More on the design: species or system human/rat hybrid. The method, then: The partial human alpha1B adrenergic receptor cDNA was joined to the 3' end of the rat alpha1B adrenergic receptor cDNA at their common BssHII restriction endonuclease site. ID:25:
The complete coding region for the human/rat alpha1B adrenergic receptor was subcloned into the eukaryotic expression vector pcDNAI-neo (Invitrogen). The resulting plasmid was transfected into COS-7 cells by electroporation. […] Binding reactions (total volume=200 ul) contained 50 mM Tris-HCl pH. […] Reactions are incubated at room temperature for one hour with shaking. Reactions were filtered onto Whatman GF/C glass fiber filters with a Brandel cell harvester. Filters were washed three times with ice cold buffer and bound radioactivity was determined.
as §1

Assay [3] has as its target T1, human alpha1C adrenergic receptor (Homo sapiens, UniProt P35348, C347R).
T1 construct: expressed in transfected cells; host or cells: COS-7 cells (pcDNAI-neo, electroporation), membranes
T1 sequence (P35348 1-466 C347R): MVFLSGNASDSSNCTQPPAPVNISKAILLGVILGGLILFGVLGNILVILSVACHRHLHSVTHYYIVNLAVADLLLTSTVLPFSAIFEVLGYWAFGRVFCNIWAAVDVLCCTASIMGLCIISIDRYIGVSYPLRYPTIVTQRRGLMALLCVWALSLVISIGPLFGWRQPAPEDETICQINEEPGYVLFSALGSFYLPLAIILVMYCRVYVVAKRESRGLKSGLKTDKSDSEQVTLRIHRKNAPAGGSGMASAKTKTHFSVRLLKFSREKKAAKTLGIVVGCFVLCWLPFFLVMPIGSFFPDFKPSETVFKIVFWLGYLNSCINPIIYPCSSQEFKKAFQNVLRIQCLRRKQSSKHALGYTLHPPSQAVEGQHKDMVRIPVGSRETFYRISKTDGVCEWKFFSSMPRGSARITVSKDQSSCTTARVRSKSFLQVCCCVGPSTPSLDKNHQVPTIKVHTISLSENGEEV
As to the kind of experiment: Selective binding assay, competition with [125I]-HEAT on COS-7 membranes, α1C. Particulars: Table I, 100 pM [125I]-HEAT. How it is done:
The resulting plasmid was transfected into COS-7 cells by electroporation. […] Binding reactions (total volume=200 ul) contained 50 mM Tris-HCl pH. […] Reactions were incubated at room temperature for one hour with shaking. Reactions were filtered onto Whatman GF/C glass fiber filters with a Brandel cell harvester. Filters were washed three times with ice cold buffer and bound radioactivity was determined.
as §1, §1

Assay [4] has as its target T2, human alpha-1c adrenergic receptor, allele 1 (LRR) (Homo sapiens, UniProt P35348, C347R).
T2 sequence (P35348 1-466 C347R): T1 sequence (P35348 1-466 C347R)
As to the kind of experiment: biochemical. The text has this:
(§2) To investigate the pharmacological profiles of the two allelic forms of the human alpha-1c adrenergic receptor we ligated the genomic exon 2 fragment of allele 2 to a cDNA clone of allele 1 at a common PvuII restriction site. The two allelic forms were transiently expressed in COS-7 cells using pcDNAI/NEO (Invitrogen) expression vector.

Assay [5] addresses T3, human alpha-1c adrenergic receptor, allele 2 (LCR) (Homo sapiens, UniProt P35348).
T3 sequence (P35348 1-466): T1 sequence (P35348 1-466 C347R) with R347C
As to the kind of experiment: biochemical.
From the text: as §2

Where [6] appears, read: Table I, 100 pM [125I]-HEAT, COS-7 membranes.

Residue numbers refer to the chain shown, from its start. Where two headings read alike, the source gives them in different places.

Broadly, the IC50 is the point on the concentration scale where inhibition reaches its midpoint.

With `CC(COc1ccccc1)N(CCCl)Cc1ccccc1` (centres unmarked) [phenoxybenzamine], the results for the IC50 in assay [1] and in assay [2] (setting [6]) were 6.1 nM and 4.3 nM, respectively.
Take `COc1cccc(OC)c1OCCNCC1CSc2ccccc2O1` (centres unmarked) [benoxathian]: the figures for the IC50 in assay [1], in assay [3] and in assay [2] (setting [6]) were 2.5 nM, 1.5 nM and 68 nM, respectively.
On to `COc1cccc(OC)c1OCCNCC1COc2ccccc2O1` (centres unmarked) [WB4101], for which the half-inhibitory concentration (IC50) turned out to be 1 nM in assay [1]; 1 nM in assay [3]; 0.9 nM in assay [4]; 1 nM in assay [5] (read-out: IC50 LCR, Table II, allele 2 (Cys at amino acid 347), COS-7, 125I-HEAT); 16 nM in assay [2] (setting [6]).
As for `COC(=O)C1=C(C)NC(C)=C(C(=O)OCCCN2CCC(c3ccccc3)(c3ccccc3)CC2)[C@H]1c1cccc([N+](=O)[O-])c1` [S(+) niguldipine], the IC50 in assay [2] was found to be 670 nM.
For `COc1ccccc1N1CCN(CCCNc2c(C)c(=O)n(C)c(=O)n2C)CC1` [5-methyl urapidil], the IC50 in assay [1] came out at 42 nM; in assay [3], 3.5 nM; in assay [4], 3.1 nM; in assay [5], 4.3 nM; in assay [2] (setting [6]) it was 270 nM.
As for `COc1cc2nc(N3CCN(C(=O)C4COc5ccccc5O4)CC3)nc(N)c2cc1OC` (centres unmarked) [doxazosin], in assay [2] (setting [6]), the IC50 worked out at 2 nM.
`COc1cc2nc(N3CCN(C(=O)C4CCCO4)CC3)nc(N)c2cc1OC` (centres unmarked) [terazosin]: in assay [2] (setting [6]), the IC50 amounted to 5 nM.
`COc1cc2nc(N3CCN(C(=O)c4ccco4)CC3)nc(N)c2cc1OC` [prazosin] came in with an IC50 in assay [2] of 2.4 nM.
`Cc1ccc(N(CC2=NCCN2)c2cccc(O)c2)cc1` [phentolamine] registered a 50% inhibitory concentration (IC50) in assay [2] (setting [6]) of 650 nM.
